In patent publication EP4745118A1, “HYDROXAMIC ACID COMPOUND OR PHARMACEUTICALLY ACCEPTABLE SALT THEREOF, AND USE THEREOF AND PREPARATION METHOD THEREFOR” (priority 2023, dated 2025):
Values after ≈ are worked out from the molar mass of the structure shown. Read-outs that look alike come from different tables or passages of the source.

Key:
ICR strain mice = experiment: Acute toxicity in mice, single tail vein injection; type: in vivo; settings: one week
Protocol: Healthy ICR strain mice weighing 20-21 g were taken for the experiment, randomly divided into groups of 3 mice per group, regardless of gender. Each compound was administered via a single tail vein injection at a volume of 20 mL/kg. Animal responses were observed immediately postadministration and monitored for one week. The number of animal deaths was recorded and mortality rates calculated.

Klebsiella pneumoniae = experiment: In vitro antibacterial activity, agar dilution method (MIC); type: cell-based; settings: Klebsiella pneumoniae
Outline: (§1)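 MIC = lowest compound concentration in agar giving sterile plates after 35°C, 18 h incubation. Inocula: 0.5 McFarland suspensions diluted 10-fold (~1-2 × 10^7 CFU/mL), spotted at ~10^4 CFU per site by multipoint inoculator; method per CLSI agar dilution.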

Proteus vulgaris = experiment: as above; type: cell-based
Outline: as §1

Pseudomonas aeruginosa = experiment: as above; type: cell-based
Outline: as §1

Proteus mirabilis = experiment: as above; type: cell-based
Outline: as §1

Serratia marcescens = experiment: as above; type: cell-based
Outline: as §1

Citrobacter freundii = experiment: as above; type: cell-based
Outline: as §1

Enterobacter aerogenes = experiment: as above; type: cell-based; settings: Klebsiella aerogenes
Outline: as §1

Escherichia coli = experiment: as above; type: cell-based; settings: Escherichia coli
Outline: as §1

Pantoea agglomerans = experiment: as above; type: cell-based
Outline: as §1

[1] = test system: Escherichia coli ATCC BAA2469 (CRE, NDM-1-producing); experiment: In vivo antibacterial activity, intraperitoneal infection in mice (survival over 7 days); settings: for effective dose of in vivo antibacterial activity: mice with intraperitoneal infection by Escherichia coli ATCC BAA2469, intravenous; for Animal survival rate / Number of surviving animals: mice, one intravenous administration 1 hour post-infection, 7 days; for Number of surviving animals: 5 animals per group
Protocol: Mice were randomly grouped based on body weight, with 5 mice in each group, regardless of gender. The infectious bacteria was Escherichia coli ATCC BAA2469 (CRE, NDM-1-producing). The test bacterial solution was diluted with 5% high-activity dry yeast. Mice received intraperitoneal injection of 0.5 mL of 100% minimum lethal dose (100% MLD) bacterial solution. One intravenous administration was given at 1 hour post-infection at a dose volume of 10 mL/kg. Animal survival numbers were observed over 7 days, and survival rates were calculated.

Enterobacter cloacae = experiment: In vitro antibacterial activity, agar dilution method (MIC); type: cell-based
Outline: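 CLSI agar dilution; inoculum ~10^4 CFU per spot from 0.5 McFarland suspension diluted 10-fold. Plates incubated 35°C for 18 h. MIC taken as lowest drug concentration giving no growth.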

Shigella flexneri = experiment: as above; type: cell-based; settings: ATCC12022, Shigella flexneri ATCC 12022, 35°C, 18 hours, read-out: MIC
Outline: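 Agar dilution per CLSI in MH agar, final drug 0.03–128 µg/mL in twofold steps. About 10^4 CFU spotted per site, 35°C for 18 hours; MIC taken as lowest concentration with no growth.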

Vero cells = experiment: Vero cytotoxicity (CCK-8); type: cell-based; settings: Chlorocebus sabaeus
Protocol: All liquid was transferred to a 15 mL centrifuge tube and centrifuged at 800 rpm for 5 min. […] A cell counter was used to measure cell density. Cells were inoculated at 100 µL and a density of 3 × 10^5/mL into a 96-well plate, with 6 replicates per group, and incubated at 37°C for 4 hours to allow cells to adhere to the wall. The compound was twofold continuously diluted with PBS, and 10 µL of the compound with the corresponding concentration was added to the 96-well plate, and shaken and mixed well on a shaker, and then incubated at 37°C for 24 hours. 10 µL of CCK-8 reagent was added to the 96-well plate, mixed thoroughly on a shaker, and incubated at 37°C for 2 hours. A microplate reader was used to measure the absorbance at 450 nm wavelength, and the inhibition rate of the compound on Vero cells was calculated. Table 5 Vero cytotoxicity of 4 optical isomers and control drug

[2] = 18 h, Klebsiella pneumoniae 09-20 (mcr-1), agar dilution, 35°C, 18 hours, read-out: MIC
[3] = 18 h, Klebsiella pneumoniae 17-R27 (CRE), agar dilution, 35°C, 18 hours, read-out: MIC
[4] = 18 h, Klebsiella pneumoniae 18-8 (ESBLs-producing), agar dilution, 35°C, 18 hours, read-out: MIC
[5] = ATCC700603, 18 h, Klebsiella pneumoniae ATCC 700603 (ESBLs-producing), agar dilution, 35°C, 18 hours, read-out: MIC
[6] = ATCCBAA2146, 18 h, Klebsiella pneumoniae ATCC BAA-2146 (CRE, NDM-1-producing), agar dilution, 35°C, 18 hours, read-out: MIC
[7] = ATCC29905, Proteus vulgaris ATCC 29905, agar dilution, 35°C, 18 hours, read-out: MIC
[8] = Pseudomonas aeruginosa PAO1, agar dilution, 35°C, 18 hours, read-out: MIC
[9] = ATCC49565, Proteus mirabilis ATCC 49565, agar dilution, 35°C, 18 hours, read-out: MIC
[10] = ATCC21074, Serratia marcescens ATCC 21074, agar dilution, 35°C, 18 hours, read-out: MIC
[11] = ATCC43864, Citrobacter freundii ATCC 43864, agar dilution, 35°C, 18 hours, read-out: MIC
[12] = ATCC13048, Enterobacter aerogenes ATCC 13048, agar dilution, 35°C, 18 hours, read-out: MIC
[13] = 18 h, Escherichia coli 13-43 (mcr-1), agar dilution, 35°C, 18 hours, read-out: MIC
[14] = 18 h, Escherichia coli 17-R28 (CRE, NDM-1-producing), agar dilution, 35°C, 18 hours, read-out: MIC
[15] = ATCC2469, 18 h, Escherichia coli ATCC 2469 (CRE, NDM-1-producing), agar dilution, 35°C, 18 hours, read-out: MIC
[16] = ATCC35218, 18 h, Escherichia coli ATCC 35218 (ESBLs-producing), agar dilution, 35°C, 18 hours, read-out: MIC
[17] = ATCC27993, Pantoea agglomerans ATCC 27993, agar dilution, 35°C, 18 hours, read-out: MIC
[18] = Enterobacter cloacae CDC1000654 (NDM-1-producing), agar dilution, 35°C, 18 hours, read-out: MIC
[19] = Vero cells, 24 hours incubation, CCK-8, read-out: IC50

Row | SMILES | Mortality rate (ICR strain mice; dose 150 mg/kg) [%] | Number of deaths (ICR strain mice; dose 150 mg/kg) [individuals] | Mortality rate (ICR strain mice; dose 200 mg/kg) [%] | Number of deaths (ICR strain mice; dose 200 mg/kg) [individuals] | MIC (Klebsiella pneumoniae; [2]) [µg/mL] | MIC (Klebsiella pneumoniae; [3]) [µg/mL] | MIC (Klebsiella pneumoniae; [4]) [µg/mL] | MIC (Klebsiella pneumoniae; [5]) [µg/mL] | MIC (Klebsiella pneumoniae; [6]) [µg/mL] | MIC (Proteus vulgaris; [7]) [µg/mL] | MIC (Pseudomonas aeruginosa; [8]) [µg/mL] | MIC (Proteus mirabilis; [9]) [µg/mL] | MIC (Serratia marcescens; [10]) [µg/mL] | MIC (Citrobacter freundii; [11]) [µg/mL] | MIC (Enterobacter aerogenes; [12]) [µg/mL] | MIC (Escherichia coli; [13]) [µg/mL] | MIC (Escherichia coli; [14]) [µg/mL] | MIC (Escherichia coli; [15]) [µg/mL] | effective dose of in vivo antibacterial activity [1] | MIC (Shigella flexneri) [µg/mL] | further results
1 | CO[C@H]1CCC[C@@H]1C#CC#Cc1ccc(C(=O)N[C@H](C(=O)NO)C(C)(C)N)cc1 [A] | 0 | 0 | 100 | 3 | 1 (≈ 2.52 µM) | 1 (≈ 2.52 µM) | 0.5 (≈ 1.26 µM) | 8 (≈ 20.1 µM) | 8 (≈ 20.1 µM) | 0.5 (≈ 1.26 µM) | 2 (≈ 5.03 µM) | 1 (≈ 2.52 µM) | 0.25 (≈ 0.629 µM) | 0.25 (≈ 0.629 µM) | 0.5 (≈ 1.26 µM) | 1 (≈ 2.52 µM) | 0.25 (≈ 0.629 µM) | 0.12 (≈ 0.302 µM) | > 3 mg/kg | 0.25 (≈ 0.629 µM) | MIC (Escherichia coli; [16]): 0.25 µg/mL (≈ 0.629 µM); MIC (Pantoea agglomerans; [17]): 2 µg/mL (≈ 5.03 µM); Animal survival rate ([1]; dose 1.5 mg/kg): 0%; Number of surviving animals ([1]; dose 1.5 mg/kg): 0 individuals; Animal survival rate ([1]; dose 3 mg/kg): 0%; Number of surviving animals ([1]; dose 3 mg/kg): 0 individuals; Animal survival rate ([1]; dose 6 mg/kg): 20%; Number of surviving animals ([1]; dose 6 mg/kg): 1 individuals; MIC (Enterobacter cloacae; [18]): 4 µg/mL (≈ 10.1 µM); IC50 (Vero cells; [19]): > 64 µM
2 | COC[C@@H]1C[C@H]1C#CC#Cc1ccc(C(=O)N[C@H](C(=O)NO)C(C)(C)N)cc1 [Ia, N-(S)-3-amino-1-hydroxyamino-3-methyl-1-oxobutan-2-yl-4-[[(1R,2R)-2-(methoxymethylene)cyclopropyl]but-1,3-diynyl]benzamide] | 0 | 0 | 100 | 3 | 0.25 (≈ 0.652 µM) | 0.5 (≈ 1.3 µM) | 0.06 (≈ 0.156 µM) | 1 (≈ 2.61 µM) | 1 (≈ 2.61 µM) | 0.12 (≈ 0.313 µM) | 0.5 (≈ 1.3 µM) | 0.25 (≈ 0.652 µM) | 0.25 (≈ 0.652 µM) | 0.25 (≈ 0.652 µM) | 0.5 (≈ 1.3 µM) | 0.12 (≈ 0.313 µM) | 0.12 (≈ 0.313 µM) | 0.12 (≈ 0.313 µM) | below 1.5 mg/kg | 0.06 (≈ 0.156 µM) | MIC (Escherichia coli; [16]): 0.12 µg/mL (≈ 0.313 µM); MIC (Pantoea agglomerans; [17]): 0.5 µg/mL (≈ 1.3 µM); Animal survival rate ([1]; dose 0.35 mg/kg): 0%; Number of surviving animals ([1]; dose 0.35 mg/kg): 0 individuals; Animal survival rate ([1]; dose 1.4 mg/kg): 80%; Number of surviving animals ([1]; dose 1.4 mg/kg): 4 individuals; MIC (Enterobacter cloacae; [18]): 1 µg/mL (≈ 2.61 µM); IC50 (Vero cells; [19]): > 128 µM
3 | COC[C@H]1C[C@@H]1C#CC#Cc1ccc(C(=O)N[C@H](C(=O)NO)C(C)(C)N)cc1 [Ib, N-(S)-3-amino-1-hydroxyamino-3-methyl-1-oxobutan-2-yl-4-[[(1S,2S)-2-(methoxymethylene)cyclopropyl]but-1,3-diynyl]benzamide] | 0 | 0 | 100 | 3 |  |  |  |  |  |  |  |  |  |  |  |  |  |  | below 1.5 mg/kg | 0.12 (≈ 0.313 µM) | MIC (Klebsiella pneumoniae; 18 h): 0.5 µg/mL (≈ 1.3 µM); MIC (Klebsiella pneumoniae; 18 h, Klebsiella pneumoniae 09-20 (mcr-1), agar dilution, 35°C): 0.5 µg/mL (≈ 1.3 µM); MIC (Klebsiella pneumoniae; 18 h, Klebsiella pneumoniae 17-R27 (CRE), agar dilution, 35°C): 0.25 µg/mL (≈ 0.652 µM); MIC (Klebsiella pneumoniae; ATCC700603, 18 h): 1 µg/mL (≈ 2.61 µM); MIC (Klebsiella pneumoniae; ATCCBAA2146, 18 h, Klebsiella pneumoniae ATCC BAA-2146 (CRE, NDM-1-producing), agar dilution, 35°C, 18 hours): 2 µg/mL (≈ 5.22 µM); MIC (Proteus vulgaris; Proteus vulgaris, ATCC29905, 18 h): 0.12 µg/mL (≈ 0.313 µM); MIC (Pseudomonas aeruginosa; Pseudomonas aeruginosa, PAO1, 18 h): 1 µg/mL (≈ 2.61 µM); MIC (Proteus mirabilis; Proteus mirabilis, ATCC49565, 18 h): 1 µg/mL (≈ 2.61 µM); MIC (Serratia marcescens; Serratia marcescens, ATCC21074, 18 h): 0.25 µg/mL (≈ 0.652 µM); MIC (Citrobacter freundii; Citrobacter freundii, ATCC43864, 18 h): 0.25 µg/mL (≈ 0.652 µM); MIC (Enterobacter aerogenes; ATCC13048, 18 h): 0.5 µg/mL (≈ 1.3 µM); MIC (Escherichia coli; 18 h, Escherichia coli 13-43 (mcr-1), agar dilution, 35°C): 0.5 µg/mL (≈ 1.3 µM); MIC (Escherichia coli; 18 h, Escherichia coli 17-R28 (CRE, NDM-1-producing), agar dilution, 35°C): 0.25 µg/mL (≈ 0.652 µM); MIC (Escherichia coli; ATCC2469, 18 h, Escherichia coli ATCC 2469 (CRE, NDM-1-producing), agar dilution, 35°C, 18 hours): 0.25 µg/mL (≈ 0.652 µM); MIC (Escherichia coli; ATCC35218, 18 h): 0.25 µg/mL (≈ 0.652 µM); MIC (Pantoea agglomerans; Pantoea agglomerans, ATCC27993, 18 h): 1 µg/mL (≈ 2.61 µM); Animal survival rate ([1]; dose 1.4 mg/kg): 60%; MIC (Enterobacter cloacae; Enterobacter cloacae, 18 h): 2 µg/mL (≈ 5.22 µM); IC50 (Vero cells; Vero, 24 h): > 128 µM
4 | COC[C@H]1C[C@H]1C#CC#Cc1ccc(C(=O)N[C@H](C(=O)NO)C(C)(C)N)cc1 [Ic, N-(S)-3-amino-1-hydroxyamino-3-methyl-1-oxobutan-2-yl-4-[[(1R,2S)-2-(methoxymethylene)cyclopropyl]but-1,3-diynyl]benzamide] | 33 | 1 | 100 | 3 | 0.25 (≈ 0.652 µM) | 0.5 (≈ 1.3 µM) | 0.06 (≈ 0.156 µM) | 1 (≈ 2.61 µM) | 2 (≈ 5.22 µM) | 0.12 (≈ 0.313 µM) | 0.5 (≈ 1.3 µM) | 0.5 (≈ 1.3 µM) | 0.25 (≈ 0.652 µM) | 0.25 (≈ 0.652 µM) | 0.5 (≈ 1.3 µM) | 0.25 (≈ 0.652 µM) | 0.12 (≈ 0.313 µM) | 0.12 (≈ 0.313 µM) | below 1.5 mg/kg | 0.06 (≈ 0.156 µM) | Mortality rate (ICR strain mice; dose 100 mg/kg): 0%; Number of deaths (ICR strain mice; dose 100 mg/kg): 0 individuals; MIC (Escherichia coli; [16]): 0.12 µg/mL (≈ 0.313 µM); MIC (Pantoea agglomerans; [17]): 0.5 µg/mL (≈ 1.3 µM); Animal survival rate ([1]; dose 0.35 mg/kg): 0%; Number of surviving animals ([1]; dose 0.35 mg/kg): 0 individuals; Animal survival rate ([1]; dose 1.4 mg/kg): 80%; MIC (Enterobacter cloacae; [18]): 1 µg/mL (≈ 2.61 µM); IC50 (Vero cells; [19]): > 128 µM
